Measured values published in patent publication US20230049231A1 (priority 2019, published 2023).

What was measured:
hERG channel = molecular target: T1, hERG channel (Homo sapiens, UniProt Q12809); experiment: hERG electrophysiology, automated whole-cell patch clamp (Patchliner); type: cell-based; settings: CHO-K1 cells stably expressing hERG; +20 mV 300 ms, -50 mV 300 ms tail current, 0.3 Hz
T1 construct: expressed in transfected cells
How it was run: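 Currents were recorded at 0.3 Hz from −80 mV, stepping to +20 mV then −50 mV (300 ms each), in stably transfected CHO-K1 cells. Concentrations (30 nM–100 μM, up to 0.3% DMSO) were added sequentially without washout. IC50 came from Hill fits of control-normalized AUC/peak of each train's final pulse.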

Kv1.3 potassium channel = molecular target: T2, Kv1.3 potassium channel (Homo sapiens, UniProt P22001); experiment: Kv1.3 potassium channel blocker activity, automated whole-cell patch clamp (Patchliner); type: cell-based; settings: CHO-K1 cells stably expressing Kv1.3; 100 ms pulses from -90 mV to +40 mV, 0.1 Hz
T2 construct: expressed in transfected cells
T2 sequence (P22001 whole entry): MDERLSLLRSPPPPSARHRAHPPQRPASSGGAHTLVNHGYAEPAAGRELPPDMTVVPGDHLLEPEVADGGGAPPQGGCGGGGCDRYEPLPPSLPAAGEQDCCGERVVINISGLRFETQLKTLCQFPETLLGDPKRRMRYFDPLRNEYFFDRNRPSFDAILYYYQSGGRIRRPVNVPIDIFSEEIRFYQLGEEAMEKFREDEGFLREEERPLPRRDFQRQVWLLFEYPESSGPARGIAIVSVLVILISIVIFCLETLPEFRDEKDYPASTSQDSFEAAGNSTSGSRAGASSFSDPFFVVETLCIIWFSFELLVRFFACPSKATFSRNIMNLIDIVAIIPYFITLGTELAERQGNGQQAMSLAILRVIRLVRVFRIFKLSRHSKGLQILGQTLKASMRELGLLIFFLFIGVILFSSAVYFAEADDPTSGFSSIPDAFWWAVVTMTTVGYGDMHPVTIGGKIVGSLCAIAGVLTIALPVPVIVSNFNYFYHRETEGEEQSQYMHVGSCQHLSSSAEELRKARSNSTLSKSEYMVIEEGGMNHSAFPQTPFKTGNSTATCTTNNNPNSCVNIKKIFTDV
How it was run: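 IC50 came from Hill-equation fits of peak and AUC currents from the final pulse at each concentration, normalized to compound-free control. Compounds applied consecutively at 30 nM to 100 μM (up to 0.3% DMSO) to Kv1.3-expressing CHO-K1 cells, P/4 leak subtraction. Pulses were +40 mV, 100 ms, from −90 mV holding, at 0.1 Hz on Patchliner.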

T1 sequence (Q12809 whole entry): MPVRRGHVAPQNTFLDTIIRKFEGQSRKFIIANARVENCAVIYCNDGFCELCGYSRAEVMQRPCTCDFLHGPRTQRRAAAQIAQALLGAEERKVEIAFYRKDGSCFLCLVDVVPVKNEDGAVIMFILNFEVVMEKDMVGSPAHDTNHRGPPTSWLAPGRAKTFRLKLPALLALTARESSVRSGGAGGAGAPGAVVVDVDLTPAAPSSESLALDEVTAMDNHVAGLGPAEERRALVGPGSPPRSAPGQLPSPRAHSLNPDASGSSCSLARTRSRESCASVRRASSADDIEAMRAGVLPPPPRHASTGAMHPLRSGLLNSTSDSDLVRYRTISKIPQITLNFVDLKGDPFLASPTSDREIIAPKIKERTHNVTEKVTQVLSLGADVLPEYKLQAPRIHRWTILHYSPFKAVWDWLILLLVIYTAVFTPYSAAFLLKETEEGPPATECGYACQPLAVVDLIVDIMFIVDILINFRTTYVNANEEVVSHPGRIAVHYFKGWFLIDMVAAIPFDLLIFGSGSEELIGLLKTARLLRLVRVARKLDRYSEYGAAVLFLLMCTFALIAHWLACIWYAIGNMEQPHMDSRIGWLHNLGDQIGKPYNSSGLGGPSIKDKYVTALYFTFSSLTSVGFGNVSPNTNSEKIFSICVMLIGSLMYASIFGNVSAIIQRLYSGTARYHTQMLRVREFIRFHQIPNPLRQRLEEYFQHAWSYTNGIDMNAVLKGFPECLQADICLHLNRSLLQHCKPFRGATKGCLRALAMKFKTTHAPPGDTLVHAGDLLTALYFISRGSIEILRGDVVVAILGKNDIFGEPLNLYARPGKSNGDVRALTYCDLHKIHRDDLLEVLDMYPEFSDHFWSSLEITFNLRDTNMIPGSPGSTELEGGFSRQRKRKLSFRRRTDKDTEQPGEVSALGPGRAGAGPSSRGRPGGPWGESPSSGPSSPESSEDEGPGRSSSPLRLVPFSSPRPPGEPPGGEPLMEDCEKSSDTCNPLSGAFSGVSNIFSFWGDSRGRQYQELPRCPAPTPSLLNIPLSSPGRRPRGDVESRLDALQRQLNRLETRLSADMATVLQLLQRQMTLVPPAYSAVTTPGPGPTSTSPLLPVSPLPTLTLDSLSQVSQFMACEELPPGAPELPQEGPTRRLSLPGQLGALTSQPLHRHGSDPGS

| Structure (SMILES) | IC50 (Kv1.3 potassium channel) | IC50 (hERG channel) |
| --- | --- | --- |
| O=C([C@H](O)CO)N1CC(=O)N2C[C@@H](c3c(O)ccc(Cl)c3Cl)C[C@H]2C1 [Compound 42, (7R,8aS)-7-(2,3-dichloro-6-hydroxyphenyl)-2-((R)-2,3-dihydroxypropanoyl) hexahydropyrrolo[1,2-a]pyrazin-4(1H)-one] | < 1 µM | > 30 µM |
| COC[C@H](O)C(=O)N1CC(=O)N2CC[C@@H](c3c(O)ccc(Cl)c3Cl)C[C@H]2C1 [Compound 44, (8R,9aS)-8-(2,3-dichloro-6-hydroxyphenyl)-2-[(2S)-2-hydroxy-3-methoxypropanoyl]-hexahydro-1H-pyrido[1,2-a]pyrazin-4-one] | < 1 µM | > 30 µM |
| C[C@@H](CO)C(=O)N1CC(=O)N2CC[C@@H](c3c(O)ccc(Cl)c3Cl)C[C@H]2C1 [Compound 45, (8R,9aS)-8-(2,3-dichloro-6-hydroxyphenyl)-2-((S)-3-hydroxy-2-methylpropanoyl)octahydro-4H-pyrido[1,2-a]pyrazin-4-one] | < 1 µM | > 30 µM |
| C[C@H](O)C(=O)N1CC(=O)N2CC[C@@H](c3c(O)ccc(Cl)c3Cl)C[C@H]2C1 [Compound 49, (8R,9aS)-8-(2,3-dichloro-6-hydroxyphenyl)-2-[(2S)-2-hydroxypropanoyl]-hexahydro-1H-pyrido[1,2-a]pyrazin-4-one] | < 1 µM | > 30 µM |
| O=C1[C@@H](CO)OC[C@@H]2C[C@H](c3c(O)ccc(Cl)c3Cl)CN12 [Compound 50, (3R,7R,8aS)-7-(2,3-dichloro-6-hydroxyphenyl)-3-(hydroxymethyl)-hexahydropyrrolo[2,1-c][1,4]oxazin-4-one] | < 1 µM | > 30 µM |
| C[C@H](CO)C(=O)N1CC(=O)N2CC[C@@H](c3c(O)ccc(Cl)c3Cl)C[C@H]2C1 [Compound 54, (8R,9aS)-8-(2,3-dichloro-6-hydroxyphenyl)-2-((R)-3-hydroxy-2-methylpropanoyl)octahydro-4H-pyrido[1,2-a]pyrazin-4-one] | < 1 µM | > 30 µM |

Continued, in another order:

| IC50 (Kv1.3 potassium channel) | Structure (SMILES) | IC50 (hERG channel) |
| --- | --- | --- |
| < 1 µM | N#CCC(=O)N1CC(=O)N2C[C@@H](c3c(O)ccc(Cl)c3Cl)C[C@H]2C1 [Compound 41, 3-[(7R,8aS)-7-(2,3-dichloro-6-hydroxypheny1)-4-oxo-hexahydropyrrolo[1,2-a]pyrazin-2-yl]-3-oxopropanenitrile] | > 30 µM |
| < 1 µM | C[C@H]1C(=O)N2CC[C@@H](c3c(O)ccc(Cl)c3Cl)C[C@H]2CN1C(=O)CO [Compound 46, (3S,8R,9aS)-8-(2,3-dichloro-6-hydroxyphenyl)-2-(2-hydroxyacetyl)-3-methyloctahydro-4H-pyrido[1,2-a]pyrazin-4-one] | > 30 µM |
| < 1 µM | O=C(N1CC(O)C1)N1CC(=O)N2C[C@@H](c3c(O)ccc(Cl)c3Cl)C[C@H]2C1 [Compound 47, (7R,8aS)-7-(2,3-dichloro-6-hydroxypheny1)-2-(3-hydroxyazetidine-1-carbonyl)-hexahydropyrrolo[1,2-a]pyrazin-4-one] | > 30 µM |
| < 1 µM | NC(=O)N1CC(=O)N2C[C@@H](c3c(O)ccc(Cl)c3Cl)C[C@H]2C1 [Compound 55, (7R,8aS)-7-(2,3-dichloro-6-hydroxyphenyl)-4-oxo-hexahydropyrrolo[1,2-a]pyrazine-2-carboxamide] | > 30 µM |
| < 1 µM | O=C1[C@@H](CO)NC[C@@H]2C[C@H](c3c(O)ccc(Cl)c3Cl)CCN12 [Compound 57, (3R,8R,9aS)-8-(2,3-dichloro-6-hydroxyphenyl)-3-(hydroxymethyl)-octahydropyrido[1,2-a]pyrazin-4-one] | > 30 µM |
| < 1 µM | C[C@H](O)CC(=O)N1CC(=O)N2C[C@@H](c3c(O)ccc(Cl)c3Cl)C[C@H]2C1 [Compound 59, (7R,8aS)-7-(2,3-dichloro-6-hydroxyphenyl)-2-[(3S)-3-hydroxybutanoyl]-hexahydropyrrolo[1,2-a]pyrazin-4-one] | > 30 µM |
